Key:
WT KRAS-BRAF complex = assay: WT KRAS-BRAF with CYPA interaction assay (TR-FRET); type: biochemical
Description: (§1) In this example, TR-FRET was used to measure the compound or compound-CYPA dependent disruption of the KRAS G12V-BRAF complex to assess inhibition efficacy. The IC50 ratio between WT KRAS/HRAS/NRAS and KRAS G12V mutant was calculated as selective index, which indicated tolerability and safety profile. Disruption of WT KRAS/HRAS/NRAS-BRAF complex by compounds was detected respectively. In assay buffer containing 25 mM HEPES (PH-7.4,4-(2-hydroxyethyl)-1-piperazineethanesulfonic acid, Thermo, 15630080), 0.002% Tween20, 0.1% BSA, 100 mM NaCl, 5 mM MgCl2, 10 μM GMPPNP (Guanosine 5′-[β,γ-imido]triphosphate trisodium salt hydrate, Sigma, G0635), tagless CYPA and GMPPNP loaded 6His-RAS proteins, and GST-BRAF^RBD were mixed in a well of a 384-well assay plate at final concentrations of 50 nM, 6.25 nM and 1 nM, respectively. Compound was present in plate wells as a 16-point 3-fold dilution series starting at a final concentration of 10 μM and incubated for 3 hours. A mixture of MAb Anti-6His-XL665 (Cisbio, 61HISXLB) and Mab anti-GST-TB cryptate (Cisbio, 61GSTTLB) was then added at a final concentration of 6.67 nM and 0.21 nM, respectively, and the plate was incubated for an additional 1.5 hours. TR-FRET signal was read on a PHERstar FSX microplate reader (Ex320 nm, Em 665/615 nm). Compounds that facilitate disruption of the RAS-BRAF complex were identified as those eliciting a decrease in the TR-FRET ratio relative to DMSO control wells.

WT HRAS-BRAF complex = assay: WT HRAS-BRAF with CYPA interaction assay (TR-FRET); type: biochemical
Description: as §1

WT NRAS-BRAF complex = assay: WT NRAS-BRAF with CYPA interaction assay (TR-FRET); type: biochemical
Description: as §1

DUSP6 = assay: Brain metastasis intracranial model, PD (DUSP6 in brain, qPCR); type: in vivo, mouse; conditions: 30 mg/kg once daily for 14 days, 6 hours post last dose, NCI-H1373-Luc model
Description: Example 24, formulated in 10% DMSO, 10% Solutol HS15, 80% water, was dosed orally to 7-9 weeks female BALB/c nude mice (Vital River Co., LTD.) in […] at 30 mg/kg (dosing volume of 10 ml/kg) once daily for 14 days. Terminal tissue and blood harvest was performed at 6 hours after post last dose of test articles, using 4 mice per group. In brief, whole blood was collected into K2-EDTA tubes and subjected to centrifugation to separate plasma. Brains were collected, rinsed, and homogenized. Mice Brain were analyzed using qPCR using DUSP6 and ACTB TaqMan probes (ABI-4369016, ABI-4351370). All the targets mRNA expression levels were normalized to the housekeeping gene, and the data were represented as fold-changes according to the 2-ΔΔCt method, where […] and ΔΔCt=ΔCt treatment-ΔCt reference, ΔCt reference was chosen as the vehicle group. The data were interpreted by GraphPad Prism, and statistical analysis of difference in the each targets mRNA expression among the groups were conducted. For comparison between two groups, an independent sample t-test will be used. For comparison among three or more groups, a one-way ANOVA (Dunnett's multiple comparisons test) will be performed, p<0.05 was considered to be statistically significant.

[1] = tested on: phosphorylation of ERK, KRAS G12C in NCI-H358 cells; assay: pERK inhibition assay; type: cell-based; conditions: Homo sapiens, NCI-H358, 4 h
How it was run: (§2)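 NCI-H358 (KRAS G12C), AGS (G12D) and SW620 (G12V) cells plated overnight, then treated with compound for 4 h in 0.5% DMSO. After fixing and methanol permeabilisation, phospho-ERK was detected by in-cell ELISA (HRP/TMB, OD450). IC50 from a 4-parameter sigmoidal fit.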

[2] = tested on: phosphorylation of ERK, KRAS G12D in AGS cells; assay: pERK inhibition assay; type: cell-based; conditions: 4 hours
How it was run: as §2

[3] = tested on: phosphorylation of ERK, KRAS G12V in SW620; assay: pERK inhibition assay; type: cell-based; conditions: Homo sapiens, SW-620, 4 h, SW620 cells
How it was run: as §2

How did the “Selectivity Index (IC50 ratio) WT KRAS/KRAS G12V” value (WT KRAS-BRAF complex) turn out when CO[C@@H](C)c1ncc(N2CCN(C)CC2)cc1-c1c2c3cc(cc4c3n1CCC4)-c1csc(n1)C[C@H](NC(=O)[C@H]1[C@H](C)[C@@H]1C)C(=O)N1CCC[C@H](N1)C(=O)OCC(C)(C)C2 (atropisomer, axis not shown; (M)) [Example 24, (1r,2R,3S)-N-[(7S,13S)-(20M)-20-[2-[(1S)-1-methoxyethyl]-5-(4-methylpiperazin-1-yl)-3-pyridyl]-17,17-dimethyl-8,14-dioxo-15-oxa-4-thia-9,21,30,31-tetrazahexacyclo[23.3.1.1^2,5.1^9,13.0^19,27.0^21,26]hentriaconta-1 (28),2,5 (31), 19,25 (29),26-hexaen-7-yl]-2,3-dimethyl-cyclopropanecarboxamide] was run?
Its value is 4.6.

And the “Selectivity Index (IC50 ratio) WT HRAS/KRAS G12V” value (WT HRAS-BRAF complex)?
The value was 5.4.

What about the “Selectivity Index (IC50 ratio) WT NRAS/KRAS G12V” value (WT NRAS-BRAF complex) of the same compound?
The value was 5.0.

What about the “MAPK activation (DUSP6) in the brain” value (DUSP6) of the same compound?
The value was “significantly decreased”.

What about the IC50 [1] of the same compound?
The IC50 was under 0.6 nM.

And the IC50 [2]?
Its IC50 is 0.9 nM.

What about the IC50 [3] of the same compound?
The IC50 was under 0.6 nM.
